Molecules are shown by their SMILES. Where two headings read alike, the source gives them in different places.

Holding throughout (experiment): biochemical
Parameters in all cases: Eurofins KinaseProfiler full panel at Km ATP, residual kinase activity (%) relative to DMSO

The target of experiment [1] is T1, Abl (H396P) (h) (Homo sapiens, UniProt P00519, H396P).
T1 construct: gene ABL1
In short, it runs like this:
(§1)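 Compounds screened at 10 µM in radiometric kinase activity assays at Km ATP, reported as remaining kinase activity (%). A KINOMEscan competition-binding screen at 10 µM measured DNA-tagged kinase retained on immobilized active-site ligand by qPCR.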

For experiment [2], the target named is T2, Flt3(D835Y)(h) (Homo sapiens, UniProt P36888, D835Y).
T2 sequence (P36888 1-993 D835Y): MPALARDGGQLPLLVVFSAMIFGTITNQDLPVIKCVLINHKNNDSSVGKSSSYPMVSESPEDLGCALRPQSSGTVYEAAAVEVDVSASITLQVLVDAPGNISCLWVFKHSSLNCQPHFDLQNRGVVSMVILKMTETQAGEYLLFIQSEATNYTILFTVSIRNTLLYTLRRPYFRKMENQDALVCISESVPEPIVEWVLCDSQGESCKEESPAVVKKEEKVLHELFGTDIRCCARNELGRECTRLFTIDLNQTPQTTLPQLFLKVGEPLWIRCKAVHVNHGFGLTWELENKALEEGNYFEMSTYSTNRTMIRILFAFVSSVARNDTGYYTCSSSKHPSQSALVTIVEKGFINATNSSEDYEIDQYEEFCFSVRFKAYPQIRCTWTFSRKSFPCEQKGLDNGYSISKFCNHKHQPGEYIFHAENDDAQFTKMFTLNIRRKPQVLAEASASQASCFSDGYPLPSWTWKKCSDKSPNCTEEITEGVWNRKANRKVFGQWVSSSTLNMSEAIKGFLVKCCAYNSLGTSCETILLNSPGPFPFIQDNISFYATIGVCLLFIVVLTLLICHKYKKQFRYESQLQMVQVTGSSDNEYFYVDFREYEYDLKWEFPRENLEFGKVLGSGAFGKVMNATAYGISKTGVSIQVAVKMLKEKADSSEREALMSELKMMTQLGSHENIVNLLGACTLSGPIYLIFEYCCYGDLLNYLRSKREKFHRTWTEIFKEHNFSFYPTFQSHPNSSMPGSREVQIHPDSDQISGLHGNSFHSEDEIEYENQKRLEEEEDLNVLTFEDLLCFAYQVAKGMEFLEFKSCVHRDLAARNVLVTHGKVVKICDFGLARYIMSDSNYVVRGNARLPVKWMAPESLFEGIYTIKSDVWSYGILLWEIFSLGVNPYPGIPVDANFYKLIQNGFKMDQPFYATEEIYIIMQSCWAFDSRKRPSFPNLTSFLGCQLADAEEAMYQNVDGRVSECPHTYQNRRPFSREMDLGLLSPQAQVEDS
In short, it runs like this: as §1

For experiment [3], the target named is T3, ULK1(h) (Homo sapiens, UniProt O75385).
T3 sequence (O75385 1-1050): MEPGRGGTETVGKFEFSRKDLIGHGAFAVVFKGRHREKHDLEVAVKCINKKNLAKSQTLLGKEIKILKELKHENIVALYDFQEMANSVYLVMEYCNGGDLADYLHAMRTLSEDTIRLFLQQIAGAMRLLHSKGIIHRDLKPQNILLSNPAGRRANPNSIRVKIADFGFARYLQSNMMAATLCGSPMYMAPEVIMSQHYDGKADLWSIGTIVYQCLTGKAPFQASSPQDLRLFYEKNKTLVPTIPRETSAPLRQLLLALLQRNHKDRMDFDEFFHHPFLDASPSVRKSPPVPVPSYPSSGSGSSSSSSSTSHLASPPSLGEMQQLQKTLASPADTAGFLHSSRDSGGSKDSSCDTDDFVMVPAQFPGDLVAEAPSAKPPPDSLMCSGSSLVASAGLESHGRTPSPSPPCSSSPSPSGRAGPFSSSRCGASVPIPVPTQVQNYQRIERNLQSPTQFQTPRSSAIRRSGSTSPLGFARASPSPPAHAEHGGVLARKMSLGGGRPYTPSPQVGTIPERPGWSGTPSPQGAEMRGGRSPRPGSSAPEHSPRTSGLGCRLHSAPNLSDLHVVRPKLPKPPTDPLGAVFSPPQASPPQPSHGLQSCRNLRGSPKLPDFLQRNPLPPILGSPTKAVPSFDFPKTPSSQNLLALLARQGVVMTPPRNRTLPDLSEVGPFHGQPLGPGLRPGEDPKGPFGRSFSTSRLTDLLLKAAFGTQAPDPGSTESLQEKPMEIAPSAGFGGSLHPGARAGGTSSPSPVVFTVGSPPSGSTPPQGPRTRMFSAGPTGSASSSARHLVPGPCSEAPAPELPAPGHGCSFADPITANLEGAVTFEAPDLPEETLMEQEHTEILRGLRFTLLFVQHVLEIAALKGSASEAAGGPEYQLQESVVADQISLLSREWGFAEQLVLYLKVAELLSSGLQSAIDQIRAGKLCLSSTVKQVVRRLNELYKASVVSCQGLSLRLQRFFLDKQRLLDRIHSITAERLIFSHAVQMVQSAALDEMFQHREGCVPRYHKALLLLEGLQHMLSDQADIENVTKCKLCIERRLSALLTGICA
In short, it runs like this: as §1

Where [4] appears, read: read-out: Residual activity (%) Spautin-1 5aa.
Setting [5] is: read-out: Residual activity (%) 5as.
Setting [6] is: read-out: Residual activity (%) 5at.
[7] abbreviates: read-out: Residual activity (%) 5ay.

As to `Fc1ccc(CNc2ncnc3ccc(F)cc23)cc1` [5aa, 6-Fluoro-N-(4-fluorobenzyl)-4-Quinazolinamine], the remaining activity at 10 µM in experiment [1] (setting [4]) worked out at 95%; in experiment [2] (setting [4]), 91%; in experiment [3] (setting [4]) it was 99%.

Turning to `Fc1ccc(CCNc2ncnc3ccc(F)cc23)cc1` [5as, 6-Fluoro-N-[2-(4-Fluorophenyl)Ethyl]-4-Quinazolinamine], the remaining activity at 10 µM in experiment [1] (setting [5]) came to 86%; in experiment [2] (setting [5]), 87%; in experiment [3] (setting [5]) it was 91%.

For `Fc1ccc2ncnc(NCCc3ccc(Cl)cc3)c2c1` [5at, N-[2-(4-Chlorophenyl)Ethyl]-6-Fluoro-4-Quinazolinamine], the remaining activity at 10 µM came to 80% in experiment [1] (setting [6]), 80% in experiment [2] (setting [6]) and 84% in experiment [3] (setting [6]).

As for `COc1ccc2ncnc(Nc3cccc(F)c3)c2c1` [5ay, N-(3-Fluorophenyl)-6-Methoxy-4-Quinazolinamine], the remaining activity at 10 µM in experiment [1] (setting [7]) stood at 76%; in experiment [2] (setting [7]) it was 49%; in experiment [3] (setting [7]), 93%.
